Assay results taken from US20030203975A1, “Anti-cancer agents” (priority 1998, published 2003).

Columns and labels:
[1] = target: T1, Topoisomerase IIβ (Homo sapiens, UniProt Q02880); test: Topo II relaxation assay; format: biochemical; set-up: key: ‘—’ = Not active; settings: unit not given; compound at 1, 10, 25 and 50 μM in protocol
Protocol: (§1) Topo II Relaxation Assay Protocol
(§2) 10×Topo II Relaxation Buffer
(§3) 500 mM Tris-HCl (pH 7.5); 100 mM mgCI2; 50 mM EDTA; 300 mg/mI BSA; 10 mM DTT; −20° C.

[2] = target: T2, Topoisomerase IIα (Homo sapiens, UniProt P11388); test: Topo II relaxation assay; format: biochemical; set-up: key: ‘—’ = Not active; settings: unit not given; compound at 1, 10, 25 and 50 μM in protocol
T2 sequence (P11388 whole entry): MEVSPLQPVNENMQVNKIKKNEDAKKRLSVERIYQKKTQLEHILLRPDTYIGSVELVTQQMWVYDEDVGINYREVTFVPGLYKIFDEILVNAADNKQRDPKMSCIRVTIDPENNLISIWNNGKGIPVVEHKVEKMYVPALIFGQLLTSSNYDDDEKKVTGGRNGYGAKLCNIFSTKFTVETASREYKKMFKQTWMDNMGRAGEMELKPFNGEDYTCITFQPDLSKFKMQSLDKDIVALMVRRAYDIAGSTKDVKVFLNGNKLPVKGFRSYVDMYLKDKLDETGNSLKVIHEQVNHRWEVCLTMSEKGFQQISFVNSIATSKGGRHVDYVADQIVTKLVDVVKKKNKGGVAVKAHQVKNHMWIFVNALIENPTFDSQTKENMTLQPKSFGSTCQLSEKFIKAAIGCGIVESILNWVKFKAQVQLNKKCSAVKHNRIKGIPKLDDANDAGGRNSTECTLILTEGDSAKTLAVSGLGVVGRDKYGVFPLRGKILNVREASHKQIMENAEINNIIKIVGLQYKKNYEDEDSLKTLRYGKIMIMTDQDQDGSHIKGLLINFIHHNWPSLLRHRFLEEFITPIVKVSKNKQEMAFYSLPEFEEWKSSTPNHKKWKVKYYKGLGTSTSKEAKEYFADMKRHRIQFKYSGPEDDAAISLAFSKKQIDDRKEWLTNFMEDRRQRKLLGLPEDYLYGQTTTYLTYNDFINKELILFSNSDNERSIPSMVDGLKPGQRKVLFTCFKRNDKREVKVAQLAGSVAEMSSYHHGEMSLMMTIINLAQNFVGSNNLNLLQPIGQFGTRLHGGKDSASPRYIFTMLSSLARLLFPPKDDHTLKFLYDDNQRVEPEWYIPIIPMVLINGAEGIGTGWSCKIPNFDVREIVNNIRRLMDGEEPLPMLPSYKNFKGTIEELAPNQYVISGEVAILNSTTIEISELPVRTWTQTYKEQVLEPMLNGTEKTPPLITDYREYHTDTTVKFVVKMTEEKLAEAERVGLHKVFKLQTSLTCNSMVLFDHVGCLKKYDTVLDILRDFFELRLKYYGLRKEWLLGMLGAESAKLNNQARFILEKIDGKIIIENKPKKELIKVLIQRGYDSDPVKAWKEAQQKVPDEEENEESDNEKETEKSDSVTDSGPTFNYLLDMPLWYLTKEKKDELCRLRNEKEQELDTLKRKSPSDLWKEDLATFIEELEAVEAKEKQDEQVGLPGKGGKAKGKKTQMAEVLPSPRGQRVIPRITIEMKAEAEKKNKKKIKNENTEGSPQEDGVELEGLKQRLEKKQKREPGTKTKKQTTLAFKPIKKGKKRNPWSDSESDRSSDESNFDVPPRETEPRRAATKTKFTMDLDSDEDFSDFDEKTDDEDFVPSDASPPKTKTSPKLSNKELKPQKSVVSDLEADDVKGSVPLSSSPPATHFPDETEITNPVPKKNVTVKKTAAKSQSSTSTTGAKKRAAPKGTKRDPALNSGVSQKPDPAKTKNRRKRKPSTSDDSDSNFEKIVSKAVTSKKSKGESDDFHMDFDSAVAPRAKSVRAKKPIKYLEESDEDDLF
Protocol: as §1, §2, §3

[3] = system: MAC 15A adenocarcinoma of the colon; test: In vitro chemosensitivity against MAC 15A adenocarcinoma (MTT assay); format: cell-based; settings: Mus musculus, MAC15A, 96 hours continuous exposure
Protocol: In Vitro Activity Against MAC 15A Adenocarcinoma.
MAC 15A cells were grown in RPMI 1640 medium supplemented with 10% foetal calf serum containing a 1% antibiotic mixture under standard tissue culture conditions and were maintained at 37° C. in a humidified atmosphere of 5% CO2 in air. Cells were harvested from a stock culture in exponential growth phase and plated in 96-well flat-bottomed plates to achieve a final density of 2×10^3 cells per well. After 2 hours incubation medium was replaced with either fresh medium containing 0.5% DMSO (control) or medium containing test compound dissolved in DMSO at a concentrations from 10 mM to 1 nM. Chemosensitivity was assessed using MTT assay by the method of Plumb et al Cancer Research 49 (1989) 4435-4440.
Following 96 hours continuous exposure to drug at 37° C. cells were incubated with fresh drug-free medium immediately prior to addition of MTT solution (5 mg/ml). Medium and MTT were removed after 4 hours and 150 μl of DMSO was added. For each plate the absorbance of the resulting solution was measured at the analytical wavelength 550 nm for formazan product, using a Labsystem Mutiskan. IC50 values were obtained from growth curves of drug concentration against % survival and are expressed in μm.

[4] = target: T1, Topoisomerase IIβ; test: Topo II decatenation assay; format: biochemical; settings: unit not given; kDNA substrate; compound at 1, 10, 25 and 50 μM in protocol
Protocol: (§4) Topisomerase Decatenation Assay.
(§5) This method uses catenated DNA substrate prepared from the kinetoplast of the insect trypanosome Crithidia fasciculata. Upon incubation with topo II, which engages DNA in a double stranded breakage-reunion cycle, DNA minicircles are released. Addition of topo-inhibiting drugs may prevent decatenation.
(§6) Topo II Decatenation Assay Protocol
(§7) This assay is the same as the Topo II Relaxation assay except that the pBR 322 Plasmid DNA is replaced with kDNA.
(§8) Results are included in Table 3 below

[5] = target: T2, Topoisomerase IIα; test: Topo II decatenation assay; format: biochemical; set-up: key: ‘—’ = Not active; settings: unit not given; kDNA substrate; compound at 1, 10, 25 and 50 μM in protocol
Protocol: as §4, §5, §6, §7, §8

[6] = system: DNA: Calf thymus sodium salt; test: DNA binding assay, Hoechst dye displacement; set-up: key: NB = Not binding; settings: concentration required to displace 50% of the Hoescht Dye; 20 μM DNA, 2 μM dye
Protocol: (§9) The propensity of selected compounds to bind to DNA in the absence of topos was measured in order to identify compounds that would bind weakly, or not at all. […] A […] was used determine binding constants of the compound to DNA by displacement of either ethidium bromide (an intercalator) or Hoechst dye 33258 (a groove binder) which form a DNA-bound fluorescent complex measured by fluorescence spectroscopy.
(§10) DNA Binding Assay Protocol
(§11) In order to detect the strength and mode of anthraquinone compound binding to DNA the displacement of known DNA binders was detected by measuring the fluorescence of a DNA/fluorescent compound complex. The addition of known concentrations of ethidium bromide, an interchelator, and Hoescht Dye, a groove binder, cause a fluorescent DNA/binder complex that can be detected and the fluorescence quantified. The addition of anthraquinone compounds displaces the interchelators or groove binders, depending on the compound mode of DNA binding, and therefore reduces the fluorescence accordingly. The preferred binding action of compounds can be quantified by determining the reduction in fluorescence resulting from a given concentration of compound. The quantification of a compounds ability to bind to DNA is expressed, as the concentration required to displace 50% of the ethidium bromide or Hoescht Dye, thus reducing the fluorescence by 50%. Therefore, the values produced are QE50 for ethidium, bromide, or QH50 for Hoescht Dye.
(§12) Compound: 300, 60, 10 and 10/6gM (1.66 μM) solution concentrations were prepared for use in the assay to produce a range of compound. Concentrations. 100, 200 and 300 μl of each dilution were used in the assay reaction. This provides a range of concentrations: −30, 20, 10, 6, 4, 2, 1, 0.67, 0.33, 0.17, 0.11, 0.06, 0.00 μM in the assay environment. Intermediate concentrations can be utilised to enhance the accuracy of the displacement concentration determination.
(§13) Buffer: 100 mM Tris, NaCI 500 mM. DNA: Calf thymus sodium salt. Stock solution of 200 μM was prepared in 10× assay buffer. Dilution of DNA therefore provided the correct concentration of assay buffer in the assay cell.300 μg DNA was used in 3 ml reaction mixture therefore 20 μM DNA concentration. Hoescht Dye 2 μM final concentration, therefore 100 μl of a 60 μM stock solution was added to a 3 ml assay. Ethidium Bromide 2 μM final concentration therefore 100 μl of a 60 μM stock solution was added to a 3 ml assay. Distilled H2O Water was added to produce 3 ml reaction volume. Order of addition: 1. DNA, 2. Water, 3. Drug, 4. Dye
(§14) The assay was completed with both Hoescht Dye and Ethidium. Bromide for each compound. The ethidium bromide is a DNA inter-chelator, Hoescht Dye is a minor groove binder. 100, 200 and […] of the lowest compound dilution was assayed. This procedure was repeated with all further dilution's. This provided a curve of fluorescence intensity decrease with increasing compound concentration. QE50 and QH50 values were determined by extrapolating the concentration of compound at the point where the fluorescence intensity was reduced by 50%. Controls involving compound only and ethidium. bromide or Hoechst Dye without compound were carried out for each experiment. Two readings for each concentration of compound were performed per experiment, each experiment was repeated at least three times. Fluorometer: Perkin Elmer Luminescence Spectrometer LS 50B.

[7] = system: DNA: Calf thymus sodium salt; test: DNA binding assay, ethidium bromide displacement; set-up: key: NB = Not binding; settings: concentration required to displace 50% of the ethidium bromide; 20 μM DNA, 2 μM dye
Protocol: as §9, §10, §11, §12, §13, §14

[8] = target: T3, Topoisomerase I (Homo sapiens, UniProt P11387); test: Topo I cleavage assay; format: biochemical; settings: at 10 μM
T3 sequence (P11387 1-765): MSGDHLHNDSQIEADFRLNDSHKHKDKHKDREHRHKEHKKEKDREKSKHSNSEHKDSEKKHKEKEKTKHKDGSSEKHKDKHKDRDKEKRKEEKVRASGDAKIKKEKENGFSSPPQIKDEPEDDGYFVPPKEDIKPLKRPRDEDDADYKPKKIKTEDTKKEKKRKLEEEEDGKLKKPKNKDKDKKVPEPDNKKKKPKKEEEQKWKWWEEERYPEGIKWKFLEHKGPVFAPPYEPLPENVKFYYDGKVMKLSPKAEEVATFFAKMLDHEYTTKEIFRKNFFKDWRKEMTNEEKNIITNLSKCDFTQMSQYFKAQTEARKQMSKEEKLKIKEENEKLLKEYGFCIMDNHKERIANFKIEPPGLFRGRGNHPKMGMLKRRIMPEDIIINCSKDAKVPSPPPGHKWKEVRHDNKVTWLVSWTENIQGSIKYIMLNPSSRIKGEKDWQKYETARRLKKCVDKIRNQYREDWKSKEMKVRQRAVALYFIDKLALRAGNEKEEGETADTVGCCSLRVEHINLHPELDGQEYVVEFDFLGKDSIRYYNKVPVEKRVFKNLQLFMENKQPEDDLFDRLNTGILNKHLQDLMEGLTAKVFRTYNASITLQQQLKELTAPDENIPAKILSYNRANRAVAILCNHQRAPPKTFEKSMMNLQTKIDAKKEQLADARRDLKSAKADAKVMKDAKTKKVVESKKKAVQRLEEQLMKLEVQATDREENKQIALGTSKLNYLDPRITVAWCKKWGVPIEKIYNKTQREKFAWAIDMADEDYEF

T1 sequence (Q02880 whole entry): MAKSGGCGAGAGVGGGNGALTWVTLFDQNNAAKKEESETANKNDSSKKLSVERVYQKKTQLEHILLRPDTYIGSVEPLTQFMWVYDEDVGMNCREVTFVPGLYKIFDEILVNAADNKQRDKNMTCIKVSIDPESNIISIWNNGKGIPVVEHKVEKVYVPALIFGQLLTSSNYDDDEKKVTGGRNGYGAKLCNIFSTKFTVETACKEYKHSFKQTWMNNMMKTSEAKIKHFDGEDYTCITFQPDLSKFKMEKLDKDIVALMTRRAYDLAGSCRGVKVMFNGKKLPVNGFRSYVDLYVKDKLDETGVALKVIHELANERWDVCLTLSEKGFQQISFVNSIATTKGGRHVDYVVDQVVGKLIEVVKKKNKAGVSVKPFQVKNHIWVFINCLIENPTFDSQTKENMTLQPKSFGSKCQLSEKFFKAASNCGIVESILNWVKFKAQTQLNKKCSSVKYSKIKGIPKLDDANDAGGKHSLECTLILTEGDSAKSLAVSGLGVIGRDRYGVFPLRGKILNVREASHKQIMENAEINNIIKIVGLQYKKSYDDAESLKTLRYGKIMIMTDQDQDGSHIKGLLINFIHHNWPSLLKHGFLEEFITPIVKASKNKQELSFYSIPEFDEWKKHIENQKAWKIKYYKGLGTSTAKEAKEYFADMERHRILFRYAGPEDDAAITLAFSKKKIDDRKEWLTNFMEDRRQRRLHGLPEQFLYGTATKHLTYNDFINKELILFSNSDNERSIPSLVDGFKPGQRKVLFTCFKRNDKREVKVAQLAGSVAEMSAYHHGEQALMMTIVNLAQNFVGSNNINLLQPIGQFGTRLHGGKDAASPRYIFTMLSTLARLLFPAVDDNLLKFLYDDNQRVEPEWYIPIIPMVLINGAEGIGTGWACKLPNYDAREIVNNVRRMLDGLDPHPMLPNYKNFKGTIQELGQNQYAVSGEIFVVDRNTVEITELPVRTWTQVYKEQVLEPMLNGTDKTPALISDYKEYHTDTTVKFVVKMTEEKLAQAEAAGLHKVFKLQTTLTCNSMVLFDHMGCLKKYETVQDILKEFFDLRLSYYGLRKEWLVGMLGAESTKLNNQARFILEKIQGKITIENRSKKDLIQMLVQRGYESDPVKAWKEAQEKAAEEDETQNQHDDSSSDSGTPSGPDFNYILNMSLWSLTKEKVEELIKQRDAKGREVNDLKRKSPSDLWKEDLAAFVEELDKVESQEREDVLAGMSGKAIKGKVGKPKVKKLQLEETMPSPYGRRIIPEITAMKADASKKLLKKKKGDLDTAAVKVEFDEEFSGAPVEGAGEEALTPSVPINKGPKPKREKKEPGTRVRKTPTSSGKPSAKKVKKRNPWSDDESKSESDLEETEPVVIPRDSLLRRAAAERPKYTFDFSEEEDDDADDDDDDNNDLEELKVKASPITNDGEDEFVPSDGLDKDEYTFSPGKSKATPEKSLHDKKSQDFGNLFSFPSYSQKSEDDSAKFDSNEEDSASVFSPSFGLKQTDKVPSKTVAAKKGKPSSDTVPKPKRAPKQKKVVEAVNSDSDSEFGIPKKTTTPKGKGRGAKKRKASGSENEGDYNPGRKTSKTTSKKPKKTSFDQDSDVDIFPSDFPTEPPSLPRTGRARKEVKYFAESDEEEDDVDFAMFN

SMILES	TopIIβ Relax. [1]	TopIIα Relax. [2]	IC50 [3] [µM]	other results
CC(C)[C@H](N)C(=O)OCCCNc1cccc2c1C(=O)c1ccccc1C2=O.O=C(O)C(F)(F)F [Example 35, 1-[3-(L-valyloxy)propylamino]anthracene-9,10-dione trifluoroacetate]	—	—	2.9	
CC(C)[C@@H](N)C(=O)OCCCNc1cccc2c1C(=O)c1ccccc1C2=O.O=C(O)C(F)(F)F [Example 37, 1-[3-(D-valyloxy)propylamino]anthracene-9,10-dione trifluoroacetate]	—	—		TopIIβ Decat. [4]: 25; TopIIα Decat. [5]: —
N[C@@H](Cc1c[nH]c2ccccc12)C(=O)OCCCNc1cccc2c1C(=O)c1ccccc1C2=O.O=C(O)C(F)(F)F [Example 41, 1-[3-(L-tryptophyloxy)propylamino]anthracene-9,10-dione trifluoro-acetate]		—		
O=C(O)C(F)(F)F.O=C1c2ccccc2C(=O)c2c(NCCCCOC(=O)[C@@H]3CCCN3)cccc21 [Example 47, 1-[4-(L-prolyloxy)butylamino]anthracene-9,10-dione trifluoroacetate]	10	5		
O=C(O)C(F)(F)F.O=C1c2ccccc2C(=O)c2c(NCCCCOC(=O)[C@H]3CCCN3)cccc21 [Example 49, 1-[4-(D-prolyloxy)butylamino]anthracene-9,10-dione trifluoroacetate]	25	25		
CC(C)[C@H](N)C(=O)OCCCNc1ccc(O)c2c1C(=O)c1c(O)cccc1C2=O.O=C(O)C(F)(F)F [Example 57, 4,8-dihydroxy-1-[3-(L-valyloxy)propylamino]anthracene-9,10-dione trifluoroacetate]	25	—	3.8	TopIIβ Decat. [4]: 25; TopIIα Decat. [5]: —
O=C(O)C(F)(F)F.O=C1c2ccccc2C(=O)c2c(NCCCOC(=O)[C@@H]3CCCN3)cccc21 [Example 67, 1-[3-(L-prolyloxy)propylamino]anthracene-9,10-dione trifluoroacetate]			8.3	QH50 Minor groove binding [6]: NB; melting point: 66 °C; QE50 Intercalating [7]: NB
O=C(O)C(F)(F)F.O=C1c2ccccc2C(=O)c2c(NCCCOC(=O)[C@H]3CCCN3)cccc21 [Example 69, 1-[3-(D-prolyloxy)propylamino]anthracene-9,10-dione trifluoroacetate]			10.2	QH50 Minor groove binding [6]: NB; melting point: 66 °C; QE50 Intercalating [7]: NB
CC[C@@]1(O)C(=O)OCc2c1cc1n(c2=O)Cc2cc3ccccc3nc2-1 [campothecin, reference compound]				nicked plasmid [8]: 90%
